Experimental data reported in PubChem BioAssay AID1259407 (Chemical Carcinogenesis Research Information System (CCRIS), 2018).
The source made the active and inactive calls. The rule behind the calls is not given here.

Tested on: CCRIS mutagenicity, Ames/micronucleus/aberration tests
Test: CCRIS mutagenicity studies
[1] = Test System: AMES SALMONELLA TYPHIMURIUM, Strain/Indicator: TA98, Metabolic Activation: NONE, Method: STANDARD PLATE
[2] = Test System: AMES SALMONELLA TYPHIMURIUM, Strain/Indicator: TA98, Metabolic Activation: RAT, LIVER, S-9, AROCLOR 1254, Method: PREINCUBATION
[3] = Test System: AMES SALMONELLA TYPHIMURIUM, Strain/Indicator: TA98, Metabolic Activation: RAT, LIVER, S-9, AROCLOR 1254, Method: STANDARD PLATE
[4] = Test System: AMES SALMONELLA TYPHIMURIUM, Strain/Indicator: TA100, Metabolic Activation: NONE, Method: STANDARD PLATE
[5] = Test System: AMES SALMONELLA TYPHIMURIUM, Strain/Indicator: TA100, Metabolic Activation: RAT, LIVER, S-9, AROCLOR 1254, Method: STANDARD PLATE
[6] = Test System: AMES SALMONELLA TYPHIMURIUM, Strain/Indicator: TA1535, Metabolic Activation: NONE, Method: STANDARD PLATE
[7] = Test System: AMES SALMONELLA TYPHIMURIUM, Strain/Indicator: TA1535, Metabolic Activation: RAT, LIVER, S-9, AROCLOR 1254, Method: STANDARD PLATE
[8] = Test System: AMES SALMONELLA TYPHIMURIUM, Strain/Indicator: TA1537, Metabolic Activation: NONE, Method: STANDARD PLATE
[9] = Test System: AMES SALMONELLA TYPHIMURIUM, Strain/Indicator: TA1537, Metabolic Activation: RAT, LIVER, S-9, AROCLOR 1254, Method: STANDARD PLATE
[10] = Test System: AMES SALMONELLA TYPHIMURIUM, Strain/Indicator: TA98, Metabolic Activation: NONE, Method: PREINCUBATION
[11] = Test System: AMES SALMONELLA TYPHIMURIUM, Strain/Indicator: TA100, Metabolic Activation: NONE, Method: PREINCUBATION
[12] = Test System: AMES SALMONELLA TYPHIMURIUM, Strain/Indicator: TA102, Metabolic Activation: NONE, Method: PREINCUBATION
[13] = Test System: AMES SALMONELLA TYPHIMURIUM, Strain/Indicator: TA100, Metabolic Activation: RAT, LIVER, S-9, AROCLOR 1254, Method: PREINCUBATION

For `Nc1ccc(N=Nc2ccc(N)cc2)cc1`, the mutagenic call (Test System: AMES SALMONELLA TYPHIMURIUM, Strain/Indicator: TA98, Metabolic Activation: HAMSTER, LIVER, S-9, AROCLOR 1254, Method: STANDARD PLATE) was “active; positive”, the mutagenic call [1] was “inactive; negative” and the mutagenic call [2] was “active; positive”. For the same compound, the mutagenic call [3] was “active; positive”, the mutagenic call [4] was “inactive; negative” and the mutagenic call [5] was “inactive; negative”. For the same compound, the mutagenic call [6] was “inactive; negative”, the mutagenic call [7] was “inactive; negative” and the mutagenic call [8] was “inactive; negative”. For the same compound, the mutagenic call [9] was “inactive; negative”, the mutagenic call (Test System: AMES SALMONELLA TYPHIMURIUM, Strain/Indicator: TA1538, Metabolic Activation: NONE, Method: STANDARD PLATE) was “inactive; negative” and the mutagenic call (Test System: AMES SALMONELLA TYPHIMURIUM, Strain/Indicator: TA1538, Metabolic Activation: RAT, LIVER, S-9, AROCLOR 1254, Method: STANDARD PLATE) was “active; positive”.
In the case of `N[C@@H](CSc1c(Cl)c(Cl)c(Cl)c(Cl)c1Cl)C(=O)O`, the mutagenic call [10] is reported as “inactive; negative”, the mutagenic call (Test System: AMES SALMONELLA TYPHIMURIUM, Strain/Indicator: TA98, Metabolic Activation: RAT, LIVER OR KIDNEY, MICROSOMES, Method: PREINCUBATION) is reported as “inactive; negative” and the mutagenic call [11] is reported as “inactive; negative”. For the same compound, the mutagenic call (Test System: AMES SALMONELLA TYPHIMURIUM, Strain/Indicator: TA100, Metabolic Activation: RAT, LIVER OR KIDNEY, MICROSOMES, Method: PREINCUBATION) was “inactive; negative”, the mutagenic call [12] was “inactive; negative” and the mutagenic call (Test System: AMES SALMONELLA TYPHIMURIUM, Strain/Indicator: TA102, Metabolic Activation: RAT, LIVER OR KIDNEY, MICROSOMES, Method: PREINCUBATION) was “inactive; negative”. For the same compound, the mutagenic call (Test System: AMES SALMONELLA TYPHIMURIUM, Strain/Indicator: TA2638, Metabolic Activation: NONE, Method: PREINCUBATION) was “inactive; negative” and the mutagenic call (Test System: AMES SALMONELLA TYPHIMURIUM, Strain/Indicator: TA2638, Metabolic Activation: RAT, LIVER OR KIDNEY, MICROSOMES, Method: PREINCUBATION) was “inactive; negative”.
In the case of `CCN=NNCC`, the mutagenic call [6] is reported as “active; positive”.
`CC(C)CC(=O)OCc1cocc2c(C=O)ccc1-2` was tested, and the mutagenic call [1] was “active; positive”, the mutagenic call [3] was “active; positive” and the mutagenic call [4] was “active; positive”. The mutagenic call [5] was “active; positive”, the mutagenic call [6] was “inactive; negative” and the mutagenic call [7] was “inactive; negative”. For the same compound, the mutagenic call [8] was “inactive; negative” and the mutagenic call [9] was “inactive; negative”.
In the case of `COC1=C(OC)C(=O)C(C)=CC1=O`, the mutagenic call [10] is reported as “inactive; negative”, the mutagenic call (Test System: AMES SALMONELLA TYPHIMURIUM, Strain/Indicator: TA98, Metabolic Activation: RAT, LIVER, S-9, PHENOBARBITAL AND 5,6-BENZOFLAVONE, Method: PREINCUBATION) is reported as “inactive; negative” and the mutagenic call [11] is reported as “inactive; negative”. The mutagenic call (Test System: AMES SALMONELLA TYPHIMURIUM, Strain/Indicator: TA100, Metabolic Activation: RAT, LIVER, S-9, PHENOBARBITAL AND 5,6-BENZOFLAVONE, Method: PREINCUBATION) was “inactive; negative”, the mutagenic call [12] was “inactive; negative” and the mutagenic call (Test System: AMES SALMONELLA TYPHIMURIUM, Strain/Indicator: TA102, Metabolic Activation: RAT, LIVER, S-9, PHENOBARBITAL AND 5,6-BENZOFLAVONE, Method: PREINCUBATION) was “inactive; negative”. For the same compound, the mutagenic call (Test System: AMES SALMONELLA TYPHIMURIUM, Strain/Indicator: TA104, Metabolic Activation: NONE, Method: PREINCUBATION) was “inactive; negative”, the mutagenic call (Test System: AMES SALMONELLA TYPHIMURIUM, Strain/Indicator: TA104, Metabolic Activation: RAT, LIVER, S-9, PHENOBARBITAL AND 5,6-BENZOFLAVONE, Method: PREINCUBATION) was “inactive; negative” and the mutagenic call (Test System: AMES SALMONELLA TYPHIMURIUM, Strain/Indicator: TA2637, Metabolic Activation: NONE, Method: PREINCUBATION) was “inactive; negative”. The mutagenic call (Test System: AMES SALMONELLA TYPHIMURIUM, Strain/Indicator: TA2637, Metabolic Activation: RAT, LIVER, S-9, PHENOBARBITAL AND 5,6-BENZOFLAVONE, Method: PREINCUBATION) was “inactive; negative”.
For `Cc1c(/C=N/OCc2ccccc2)c2cc([N+](=O)[O-])ccc2n1Cc1cccc([N+](=O)[O-])c1`, the mutagenic call [1] was “active; positive”, the mutagenic call (Test System: AMES SALMONELLA TYPHIMURIUM, Strain/Indicator: TA98, Metabolic Activation: RAT, LIVER, S-9, PHENOBARBITAL AND BETA-NAPHTHOFLAVONE, Method: STANDARD PLATE) was “active; positive” and the mutagenic call [4] was “inactive; negative”. The mutagenic call (Test System: AMES SALMONELLA TYPHIMURIUM, Strain/Indicator: TA100, Metabolic Activation: RAT, LIVER, S-9, PHENOBARBITAL AND BETA-NAPHTHOFLAVONE, Method: STANDARD PLATE) was “inactive; negative”.
`COc1ccc(N/C=C/C2=[N+](C)c3ccccc3C2(C)C)c(OC)c1` was tested, and the mutagenic call (Test System: Ames Salmonella typhimurium, Strain/Indicator: TA98, Metabolic Activation: None, Method: Preincubation) was “inactive; negative”, the mutagenic call (Test System: Ames Salmonella typhimurium, Strain/Indicator: TA98, Metabolic Activation: Rat, Liver, S-9, Aroclor 1254, Method: Preincubation) was “inactive; negative” and the mutagenic call (Test System: Ames Salmonella typhimurium, Strain/Indicator: TA100, Metabolic Activation: None, Method: Preincubation) was “inactive; negative”. The mutagenic call (Test System: Ames Salmonella typhimurium, Strain/Indicator: TA100, Metabolic Activation: Rat, Liver, S-9, Aroclor 1254, Method: Preincubation) was “inactive; negative”, the mutagenic call (Test System: Ames Salmonella typhimurium, Strain/Indicator: TA102, Metabolic Activation: None, Method: Preincubation) was “inactive; negative” and the mutagenic call (Test System: Ames Salmonella typhimurium, Strain/Indicator: TA102, Metabolic Activation: Rat, Liver, S-9, Aroclor 1254, Method: Preincubation) was “inactive; negative”. For the same compound, the mutagenic call (Test System: Ames Salmonella typhimurium, Strain/Indicator: TA1535, Metabolic Activation: None, Method: Preincubation) was “inactive; negative” and the mutagenic call (Test System: Ames Salmonella typhimurium, Strain/Indicator: TA1535, Metabolic Activation: Rat, Liver, S-9, Aroclor 1254, Method: Preincubation) was “inactive; negative”.
For `CC(C)CC=O`, the mutagenic call [10] was “inactive; negative”, the mutagenic call [2] was “inactive; negative” and the mutagenic call [11] was “inactive; negative”. For the same compound, the mutagenic call [13] was “inactive; negative”, the mutagenic call [12] was “inactive; negative” and the mutagenic call (Test System: AMES SALMONELLA TYPHIMURIUM, Strain/Indicator: TA102, Metabolic Activation: RAT, LIVER, S-9, AROCLOR 1254, Method: PREINCUBATION) was “inactive; negative”.
With `CC(=O)OCc1ccc(N=Nc2ccccc2COC(C)=O)cc1` the mutagenic call [11] was “active; positive” and the mutagenic call (Test System: AMES SALMONELLA TYPHIMURIUM, Strain/Indicator: TA100, Metabolic Activation: RAT, LIVER, S-9, POLYCHLORINATED BIPHENYLS, Method: PREINCUBATION) was “inactive; negative”.
In the case of `O=c1c(=O)c2c([N+](=O)[O-])ccc3ccc4cccc1c4c32`, the mutagenic call [10] is reported as “active; positive”, the mutagenic call [2] is reported as “active; positive” and the mutagenic call [11] is reported as “active; positive”. For the same compound, the mutagenic call [13] was “active; positive”.
